pEC50: −log10 of the molar value.
Assays:
TRPML2 = molecular target: T1, TRPML2 (Homo sapiens, UniProt Q8IZK6); test: Fluorescent TRPML2 assay (performed as for TRPML1, substituting the TRPML2 subtype); assay type: cell-based
T1 construct: expressed in transfected cells
T1 sequence (Q8IZK6 1-566): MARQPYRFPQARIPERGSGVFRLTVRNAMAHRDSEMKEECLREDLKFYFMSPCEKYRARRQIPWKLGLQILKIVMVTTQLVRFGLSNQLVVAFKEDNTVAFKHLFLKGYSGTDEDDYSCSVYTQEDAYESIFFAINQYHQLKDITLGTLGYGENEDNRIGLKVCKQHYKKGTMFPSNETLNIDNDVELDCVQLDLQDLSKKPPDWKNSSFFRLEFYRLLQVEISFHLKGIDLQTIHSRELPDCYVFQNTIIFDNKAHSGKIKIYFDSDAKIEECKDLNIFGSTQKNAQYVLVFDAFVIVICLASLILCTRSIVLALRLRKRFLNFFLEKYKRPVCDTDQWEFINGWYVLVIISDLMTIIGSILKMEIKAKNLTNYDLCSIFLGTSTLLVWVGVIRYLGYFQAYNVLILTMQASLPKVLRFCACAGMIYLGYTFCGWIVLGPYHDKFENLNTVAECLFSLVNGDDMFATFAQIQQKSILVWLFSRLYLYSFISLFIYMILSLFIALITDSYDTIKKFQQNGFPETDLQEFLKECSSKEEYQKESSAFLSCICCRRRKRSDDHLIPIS
Method in brief: (§1)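 HEK-293 Trex cells with doxycycline-induced (0.5 ug/mL) surface-directed human TRPML subtype, loaded with 1 μM Fluo4-AM, resuspended in Ringer's with 10 mM calcium. Compounds at 20 μM to 6 nM final in half-log steps, triplicate; fluorescence ex 480/em 540; EC50 by non-linear regression versus plate controls.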

TRPML3 = molecular target: T2, TRPML3 (Homo sapiens, UniProt Q8TDD5); test: Fluorescent TRPML3 assay (performed as for TRPML1, substituting the TRPML3 subtype); assay type: cell-based
T2 construct: expressed in transfected cells
T2 sequence (Q8TDD5 1-553): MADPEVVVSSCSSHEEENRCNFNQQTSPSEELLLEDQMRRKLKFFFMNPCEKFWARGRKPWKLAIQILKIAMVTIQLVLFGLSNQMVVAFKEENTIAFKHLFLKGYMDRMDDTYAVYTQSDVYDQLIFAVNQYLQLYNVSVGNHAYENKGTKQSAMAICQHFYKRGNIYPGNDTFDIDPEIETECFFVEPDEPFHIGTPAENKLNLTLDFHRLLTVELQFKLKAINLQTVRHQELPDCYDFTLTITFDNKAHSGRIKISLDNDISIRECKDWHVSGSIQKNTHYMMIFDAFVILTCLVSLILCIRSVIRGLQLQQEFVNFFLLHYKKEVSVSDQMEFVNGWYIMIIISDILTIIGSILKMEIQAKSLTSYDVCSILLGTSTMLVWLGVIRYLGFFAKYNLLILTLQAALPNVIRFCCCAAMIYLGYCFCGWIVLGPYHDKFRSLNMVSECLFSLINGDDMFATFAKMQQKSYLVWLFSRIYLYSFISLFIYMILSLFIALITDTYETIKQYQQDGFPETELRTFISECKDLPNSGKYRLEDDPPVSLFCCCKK
Method in brief: as §1

TRPML1 [1] = molecular target: TRPML1 (Homo sapiens, UniProt Q9GZU1); test: Fluorescent TRPML1 assay (Fluo4-AM calcium fluorescence in doxycycline-induced HEK-293 Trex cells); assay type: cell-based
Method in brief: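 First, expression of surface-targeted mutant human TRPML1 is induced in HEK-293 Trex cells with 0.5 ug/mL doxycycline the day before. Next, cells take up 1 micromolar Fluo4-AM in Ringer's with 0.1% Pluronic. Finally, they are added to compounds (6 nanomolar–20 micromolar final) in 10 mM calcium Ringer's and fluorescence is read.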

TRPML1 [2] = settings: cited from earlier work

TRPML1 (Homo sapiens, UniProt Q9GZU1), sequence (Q9GZU1 whole entry L15A/L16A/L577A/L578A, form open): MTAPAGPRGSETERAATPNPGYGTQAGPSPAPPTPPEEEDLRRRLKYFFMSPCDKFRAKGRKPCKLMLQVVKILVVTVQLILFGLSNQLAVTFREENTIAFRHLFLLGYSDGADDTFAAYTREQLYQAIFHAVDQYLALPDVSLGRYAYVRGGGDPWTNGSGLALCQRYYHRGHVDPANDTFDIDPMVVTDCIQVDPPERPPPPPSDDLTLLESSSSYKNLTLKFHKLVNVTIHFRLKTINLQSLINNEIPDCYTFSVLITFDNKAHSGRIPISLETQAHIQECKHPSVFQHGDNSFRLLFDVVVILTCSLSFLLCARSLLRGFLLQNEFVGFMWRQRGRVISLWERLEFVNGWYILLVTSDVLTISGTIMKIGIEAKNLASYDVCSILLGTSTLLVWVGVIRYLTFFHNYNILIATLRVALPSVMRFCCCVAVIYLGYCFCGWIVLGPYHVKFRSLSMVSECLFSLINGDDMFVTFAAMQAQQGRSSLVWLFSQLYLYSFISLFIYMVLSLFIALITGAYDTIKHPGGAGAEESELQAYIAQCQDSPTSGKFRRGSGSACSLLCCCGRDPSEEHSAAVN

pEC50 (TRPML2) | pEC50 (TRPML3) | pEC50 (TRPML1 [1]) | Compound | [Ca2+] increases (TRPML1 [2]; HEK293 cells stably or transiently expressing TRPML1 with its lysosomal targeting sequence deleted) | concentration needed to effectively activate TRPMLs (TRPML1 [2]; TRPMLs, high concentrations needed) [µM]
6.30 to 7.00 | > 7.00 | > 7.00 | CC(C)c1cn(-c2cc(C(F)(F)F)ccn2)c2ncnc(N3C[C@@H](C)N(C(=O)OC(C)(C)C)C[C@@H]3C)c12 [Compound 699, tert-butyl (2R,5S)-4-(5-isopropyl-7-(4-(trifluoromethyl)pyridin-2-yl)-7H-pyrrolo[2,3-d]pyrimidin-4-yl)-2,5-dimethylpiperazine-1-carboxylate] | – | –
6.30 to 7.00 | > 7.00 | > 7.00 | CC(C)c1cn(-c2cc(C#N)ccn2)c2ncnc(N3C[C@@H](C)N(C(=O)OC(C)(C)C)C[C@@H]3C)c12 [Compound 700, tert-butyl (2R,5S)-4-(7-(4-cyanopyridin-2-yl)-5-isopropyl-7H-pyrrolo[2,3-d]pyrimidin-4-yl)-2,5-dimethylpiperazine-1-carboxylate] | – | –
< 5.70 | 6.30 to 7.00 | > 7.00 | Cc1cn(-c2cc(F)ccn2)c2ccnc(N3C[C@@H](C)N(C(=O)OC(C)(C)C)C[C@@H]3C)c12 [Compound 701, tert-butyl (2R,5S)-4-(1-(4-fluoropyridin-2-yl)-3-methyl-1H-pyrrolo[3,2-c]pyridin-4-yl)-2,5-dimethylpiperazine-1-carboxylate] | – | –
5.70 to 6.30 | 5.70 to 6.30 | > 7.00 | Cc1cn(-c2cc(C(F)(F)F)ccn2)c2ccnc(N3C[C@@H](C)N(C(=O)OC(C)(C)C)C[C@@H]3C)c12 [Compound 702, tert-butyl (2R,5S)-2,5-dimethyl-4-(3-methyl-1-(4-(trifluoromethyl)pyridin-2-yl)-1H-pyrrolo[3,2-c]pyridin-4-yl)piperazine-1-carboxylate] | – | –
> 7.00 | > 7.00 | > 7.00 | C[C@H]1CN(C(=O)OC(C)(C)C)CCN1c1nccc2c1c(-c1ccccc1F)cn2-c1cccc(F)c1 [Compound 703, tert-butyl (S)-4-(3-(2-fluorophenyl)-1-(3-fluorophenyl)-1H-pyrrolo[3,2-c]pyridin-4-yl)-3-methylpiperazine-1-carboxylate] | – | –
> 7.00 | > 7.00 | > 7.00 | C[C@@H]1CN(c2nccc3c2c(C2CC2)cn3-c2cccc(F)c2)CCN1C(=O)OC(C)(C)C [Compound 704, tert-butyl (R)-4-(3-cyclopropyl-1-(3-fluorophenyl)-1H-pyrrolo[3,2-c]pyridin-4-yl)-2-methylpiperazine-1-carboxylate] | – | –
5.70 to 6.30 | > 7.00 | > 7.00 | Cc1cn(-c2cc(C#N)ccn2)c2ccnc(N3C[C@@H](C)N(C(=O)OC(C)(C)C)C[C@@H]3C)c12 [Compound 705, tert-butyl (2R,5S)-4-(1-(4-cyanopyridin-2-yl)-3-methyl-1H-pyrrolo[3,2-c]pyridin-4-yl)-2,5-dimethylpiperazine-1-carboxylate] | – | –
5.70 to 6.30 | 6.30 to 7.00 | 6.30 to 7.00 | C[C@H]1CN(C(=O)OC(C)(C)C)CCN1c1nccc2c1c(C1CCC1)cn2-c1cccc(F)c1 [Compound 706, tert-butyl (S)-4-(3-cyclobutyl-1-(3-fluorophenyl)-1H-pyrrolo[3,2-c]pyridin-4-yl)-3-methylpiperazine-1-carboxylate] | – | –
> 7.00 | > 7.00 | > 7.00 | [2H]C([2H])([2H])[C@@H]1CN(c2ncnc3c2c(C(F)(F)F)cn3-c2cc(C#N)ccn2)[C@@H](C)CN1C(=O)OC(C)(C)C [Compound 707, tert-butyl (2R,5S)-4-(7-(4-cyanopyridin-2-yl)-5-(trifluoromethyl)-7H-pyrrolo[2,3-d]pyrimidin-4-yl)-5-methyl-2-(methyl-d3)piperazine-1-carboxylate] | – | –
5.70 to 6.30 | 5.70 to 6.30 | 5.70 to 6.30 | CC(C)(C)OC(=O)N1CCN(c2ncnc3c2c(C(F)(F)F)cn3-c2cc(C#N)ccn2)CC1 [Compound 708, tert-butyl 4-(7-(4-cyanopyridin-2-yl)-5-(trifluoromethyl)-7H-pyrrolo[2,3-d]pyrimidin-4-yl)piperazine-1-carboxylate] | – | –
> 7.00 | > 7.00 | > 7.00 | [2H]C([2H])([2H])[C@@H]1CN(c2ncnc3c(-c4cc(C#N)ccn4)cn(-c4ccccc4F)c23)[C@@H](C)CN1C(=O)OC(C)(C)C [Compound 709, tert-butyl (2R,5S)-4-(7-(4-cyanopyridin-2-yl)-5-(2-fluorophenyl)-5H-pyrrolo[3,2-d]pyrimidin-4-yl)-5-methyl-2-(methyl-d3)piperazine-1-carboxylate] | – | –
6.30 to 7.00 | > 7.00 | > 7.00 | C[C@@H]1CN(c2ncnc3c2c(C2CCC2)cn3-c2cc(C#N)ccn2)[C@@H](C)CN1C(=O)OC(C)(C)C [Compound 710, tert-butyl (2R,5S)-4-(7-(4-cyanopyridin-2-yl)-5-cyclobutyl-7H-pyrrolo[2,3-d]pyrimidin-4-yl)-2,5-dimethylpiperazine-1-carboxylate] | – | –
5.70 to 6.30 | 6.30 to 7.00 | > 7.00 | [2H]C([2H])([2H])[C@@H]1CN(c2ncnc3c2c(C2CC2)cn3-c2cc(C#N)ccn2)[C@@H](C)CN1C(=O)OC(C)(C)C [Compound 711, tert-butyl (2R,5S)-4-(7-(4-cyanopyridin-2-yl)-5-cyclopropyl-7H-pyrrolo[2,3-d]pyrimidin-4-yl)-5-methyl-2-(methyl-d3)piperazine-1-carboxylate] | – | –
> 7.00 | > 7.00 | > 7.00 | [2H]C([2H])([2H])[C@@H]1CN(c2ncnc3c2c(-c2ccccc2F)cn3-c2cc(C#N)ccn2)[C@@H](C)CN1C(=O)OC(C)(C)C [Compound 712, tert-butyl (2R,5S)-4-(7-(4-cyanopyridin-2-yl)-5-(2-fluorophenyl)-7H-pyrrolo[2,3-d]pyrimidin-4-yl)-5-methyl-2-(methyl-d3)piperazine-1-carboxylate] | – | –
> 7.00 | > 7.00 | > 7.00 | C#Cc1ccnc(-n2cc(C3CC3)c3c(N4C[C@@H](C)N(C(=O)OC(C)(C)C)C[C@@H]4C)ncnc32)c1 [Compound 715, tert-butyl (2R,5S)-4-(5-cyclopropyl-7-(4-ethynylpyridin-2-yl)-7H-pyrrolo[2,3-d]pyrimidin-4-yl)-2,5-dimethylpiperazine-1-carboxylate] | – | –
5.70 to 6.30 | 6.30 to 7.00 | 6.30 to 7.00 | C#Cc1ccnc(-n2cc(C(F)(F)F)c3c(N4C[C@@H](C)N(C(=O)OC(C)(C)C)C[C@@H]4C)ncnc32)c1 [Compound 716, tert-butyl (2R,5S)-4-(7-(4-ethynylpyridin-2-yl)-5-(trifluoromethyl)-7H-pyrrolo[2,3-d]pyrimidin-4-yl)-2,5-dimethylpiperazine-1-carboxylate] | – | –
6.30 to 7.00 | > 7.00 | > 7.00 | CCc1ccnc(-n2cc(C3CC3)c3c(N4C[C@@H](C)N(C(=O)OC(C)(C)C)C[C@@H]4C)ncnc32)c1 [Compound 717, tert-butyl (2R,5S)-4-(5-cyclopropyl-7-(4-ethylpyridin-2-yl)-7H-pyrrolo[2,3-d]pyrimidin-4-yl)-2,5-dimethylpiperazine-1-carboxylate] | – | –
5.70 to 6.30 | 6.30 to 7.00 | 6.30 to 7.00 | CCc1ccnc(-n2cc(C(F)(F)F)c3c(N4C[C@@H](C)N(C(=O)OC(C)(C)C)C[C@@H]4C)ncnc32)c1 [Compound 718, tert-butyl (2R,5S)-4-(7-(4-ethylpyridin-2-yl)-5-(trifluoromethyl)-7H-pyrrolo[2,3-d]pyrimidin-4-yl)-2,5-dimethylpiperazine-1-carboxylate] | – | –
– | – | – | ML-SA1 | significant [Ca2+] increases | ~10

— patent US20250136606A1, “MODULATORS OF TRPML, THEIR COMPOSITIONS AND METHODS OF USE” (Caraway Therapeutics, Inc., priority 2021, published 2025)
